Reference: patent US7163921B1, “Peptide derivatives and medicinal compositions” (Nippon Shinyaku Co., Ltd., priority 2000, dated 2007)
Marks after values point to notes of the source that are not given here.

How the values were obtained:
Male mice (ddY) = assay: Mouse formalin test; assay type: in vivo
Method: Male mice (ddY; 4 to 5 weeks old) were kept at a room temperature of 21 to 25° C. and a humidity of 45 to 65% in a cage having a 12-hour light/12-hour dark cycle while being fed with feed and water ad libitum, whereby being acclimatized for a period of 1 week or longer. 6 Animals in each group were employed.
The compound of Example 1 was dissolved in physiological saline. Each mouse was placed in a cylindrical tube whose diameter was about 4 cm, immobilized at its tail, and a 27G needle connected to a 1 mL syringe was inserted into its tail vein, via which 0.1 mL/10 g body weight of the drug solution was administered rapidly. In a control group, physiological saline was administered. After administration, an absorbent cotton was used for hemostasis, and the animal was returned to the observation cage. The dose of the compound of Example 1 was 1 mg or 3 mg per 1 kg body weight of each mouse.
Subsequently, each mouse was acclimatized sufficiently to the observation cage, and then placed in a retainer for the drug administration. 20 μL of a 1% formalin solution was subcutaneously administered into the plantar region of the hindpaw, and the mouse was returned to the observation cage, and examined for the duration of any aversive behavior such as licking or biting the administered hindpaw extremity over a period of 30 minutes using a stopwatch.

human μ receptor = molecular target: T1, human μ receptor (Homo sapiens, UniProt P35372); assay: μ Receptor binding test ([3H] diprenorphine displacement); conditions: Ki for μ receptor divided by Ki for nociceptin receptor
T1 construct: purchased Receptor Biology
T1 sequence (P35372 whole entry): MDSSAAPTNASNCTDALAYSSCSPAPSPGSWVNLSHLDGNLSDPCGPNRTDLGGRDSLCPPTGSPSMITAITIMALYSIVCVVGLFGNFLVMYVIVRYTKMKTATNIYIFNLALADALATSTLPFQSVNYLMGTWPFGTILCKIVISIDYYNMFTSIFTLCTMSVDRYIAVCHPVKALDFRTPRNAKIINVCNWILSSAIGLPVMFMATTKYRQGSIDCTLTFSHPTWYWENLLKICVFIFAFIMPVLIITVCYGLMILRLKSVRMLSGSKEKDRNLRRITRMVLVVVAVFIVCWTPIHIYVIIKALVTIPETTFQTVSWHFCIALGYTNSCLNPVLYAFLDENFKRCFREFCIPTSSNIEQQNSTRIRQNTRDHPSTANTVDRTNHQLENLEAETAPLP
Method: A human μ receptor-expressing cell membrane preparation (Receptor Biology) was adjusted at the membrane protein level of 8.5 μg/mL in a Tris buffer [50 mM Tris-HCl (pH 7.8), 5 mM MgCl2, 1 mM EGTA, 0.1% BSA]. To this suspension, [^3H] diprenorphine (diluted to the final concentration of 0.13 nM in the Tris buffer) and a test substance were added, and the mixture was incubated at 25° C. for 90 minutes. Using a cell harvester and a washing solution [50 mM Tris-HCl (pH 7.8), 4° C.], the membrane was recovered onto the GF/B filter which had been pretreated with 0.3% PEI, and washed further 4 times. The filter was transferred into a vial, to which a scintillator was added, and then the radioactivity was measured using a liquid scintillation counter. A non-specific binding was regarded as a binding in the presence of 100 μM naloxone, and the difference between the total binding and the non-specific binding was regarded as the specific binding. Based on the % binding inhibition in the presence of a test substance, the IC50 was obtained and employed together with the Kd value of the [^3H] diprenorphine to calculate the Ki value of the test substance (mol/L; hereinafter referred to as M value). The M value was divided by the N value obtained in Test Example 1 to judge the selectivity of the receptor binding of the test substance.

Row | SMILES | Duration of aversive behavior (Male mice (ddY); 1 mg/kg via tail vein, 0 to 10 min after formalin administration, control 128.3) | Duration of aversive behavior (Male mice (ddY); 1 mg/kg via tail vein, 10 to 30 min after formalin administration, control 261.0) [s] | Duration of aversive behavior (Male mice (ddY); 3 mg/kg via tail vein, 0 to 10 min after formalin administration, control 128.3) | Duration of aversive behavior (Male mice (ddY); 3 mg/kg via tail vein, 10 to 30 min after formalin administration, control 261.0) | Selectivity (M value/N value) (human μ receptor)
1 | N=C(N)NCCCCCCN[C@@H](Cc1ccc(O)cc1)C(=O)N[C@@H](Cc1ccc(O)cc1)C(=O)N[C@@H](CCCNC(=N)N)C(=O)N[C@@H](Cc1c[nH]c2ccccc12)C(N)=O [Example 1, N-α-6-Guanidinohexyl-L-tyrosyl-L-tyrosyl-L-arginyl-L-tryptophanamide] | 80.8** sec | 163.8 | 41.00** sec | 112.8** sec | 93
2 | Cc1cc(C[C@H](NCCCCCCNC(=N)N)C(=O)N[C@@H](Cc2cc(C)c(O)c(C)c2)C(=O)N[C@@H](CCCNC(=N)N)C(=O)N[C@H](C)c2ccc3ccccc3c2)cc(C)c1O [Example 27, N-α-6-Guanidinohexyl-3,5-dimethyl-L-tyrosyl-3,5-dimethyl-L-tyrosyl-N-[(R)-1-(2-naphthyl)ethyl]-L-argininamide] |  |  |  |  | 17
3 | Cc1cc(C[C@H](NCCCCCCNC(=N)N)C(=O)N[C@@H](Cc2ccc(O)cc2)C(=O)N[C@@H](CCCNC(=N)N)C(=O)N[C@H](C)c2ccc3ccccc3c2)cc(C)c1O [Example 25, N-α-6-Guanidinohexyl-3,5-dimethyl-L-tyrosyl-L-tyrosyl-N-[(R)-1-(2-naphthyl)ethyl]-L-argininamide] |  |  |  |  | 15
